This passage reports IC50 results from publication PMC9780888, “4-Isobutylmethcathinone—A Novel Synthetic Cathinone with High In Vitro Cytotoxicity and Strong Receptor Binding Preference of Enantiomers” (Pharmaceuticals, 2022).

One test concerns HEK 293T. Briefly: WST-1 viability assay, HEK 293T cells. The test is classed as cell-based, human. The method, then: (§1) Based on the novelty of the IMBcat compound, we aimed to evaluate its in vitro cytotoxicity in selected model cell lines as well as to determine the toxicity of the IBMcat enantiomers, since both the chemical structure and chirality of compounds could play a role in their bioactivity (Table 2). The cytotoxic profile of the IBMcat was determined by a WST-1 viability assay after 72-h treatment. For this purpose, cell lines derived from distinct tissues, often affected by NPSs, were chosen, i.e., cells of kidney, hepatic, neural, urinary, and intestinal origin as well as keratinocytes and primary fibroblasts (HEK 293T, Hep G2, HMC-3, SH-SY5Y, 5637, CaCo-2, HaCaT, MRC-5, and BJ, respectively). The cytotoxicity of IBMcat and its enantiomers was concentration- and cell-line dependent, the IC50 values, which were in the micromolar range, are given in Table 2. […] This was followed by embryonic kidney cells HEK 293T (immortalized), in which the toxicity ranged between a concentration of 123 and 192 µM.
In this study, the following cell lines were used: HEK 293T, Hep G2, HMC-3, SH-SY5Y, 5637, CaCo-2, HaCaT, MRC-5, BJ, and L929. The cells lines were of the following origin: human embryonic immortalized kidney cells (HEK 293T), cells from hepatocellular carcinoma (Hep G2), microglial immortalized cells (HMC-3), cells from neuroblastoma (SH-SY5Y), the urinary bladder carcinoma (5637), colon carcinoma (CaCo-2), immortalized keratinocytes (HaCaT), noncancerous lung fibroblasts (MRC-5), fibroblasts from the foreskin (BJ) and mouse immortalized fibroblasts (L929; frequently used for cytotoxicity evaluation). The selected cell lines were chosen so that not only primary noncancerous cells are evaluated but also cells derived from tissues, which are the most often affected by novel synthetic drugs, i.e., kidney, liver, urinary bladder, and nervous tissue. Except for L929 and MRC-5 which were supplied by Sigma-Aldrich, the rest of the cell lines were purchased from the American Tissue Culture Collection (ATCC). […]
(§2) The cytotoxicity of IBMCat was evaluated in vitro by using a WST-1 viability assay (Sigma-Aldrich, Saint Louis, MO, USA) based on the transformation of a tetrazolium salt into colored formazan in metabolically active cells. […] After 72 h of additional incubation of the cells, their viability was determined by WST-1. […] The cells were incubated for 2 h, after which absorbance of the raised formazan was measured spectrophotometrically at 450 nm (reference wavelength of 630 nm) using a UV-Vis spectrometer (Bio-Rad Laboratories, Hercules, CA, USA). […] The half-maximal inhibitory concentrations (IC50) were calculated from the measured dose–response curves by AAT Bioquest.

For a further test, the system named is HMC-3. Briefly: WST-1 viability assay, HMC-3 cells. The format is cell-based, human. To be noted: HMC-3, 72 h incubation, WST-1, four replicates. The method, then: as §1
(§3) In this study, the following cell lines were used: HEK 293T, Hep G2, HMC-3, SH-SY5Y, 5637, CaCo-2, HaCaT, MRC-5, BJ, and L929. […] The selected cell lines were chosen so that not only primary noncancerous cells are evaluated but also cells derived from tissues, which are the most often affected by novel synthetic drugs, i.e., kidney, liver, urinary bladder, and nervous tissue. […]
as §2

The subject of a further test is 5637. In words: WST-1 viability assay, 5637 cells. The format is cell-based, human. Particulars: 5637, 72 h incubation, WST-1, four replicates. On the procedure: as §1, §3, §2
Another test deals with L929. Briefly: WST-1 viability assay, L929 cells. The test is classed as cell-based, mouse. Particulars: L929, 72 h incubation, WST-1, four replicates. The method, then:
as §1, §3, §2

In a further test the test system is CaCo-2. Briefly: WST-1 viability assay, CaCo-2 cells. The test is classed as cell-based, human. To be noted: CaCo-2, 72 h incubation, WST-1, four replicates. The method, then: as §1, §3, §2
The next test relates to HaCaT. In words: WST-1 viability assay, HaCaT cells. The test is classed as cell-based, human. To be noted: 72 h incubation, WST-1, four replicates. On the procedure:
as §1, §3, §2

Setting [1] is: Homo sapiens, 72 h incubation, WST-1, four replicates, read-out: IC50 ± SD.

Counter-ions that a name gives are not always drawn. Like-named read-outs stand apart in the source and are kept apart here.

For the compound `CNC(C)C(=O)c1ccc(CC(C)C)cc1.Cl` (stereo not shown) [IBMcat, 4-isobutylmethcathinone hydrochloride], the IC50 in the test with HEK 293T (Homo sapiens, 72 h, racemate and enantiomers, read-out: toxicity (IC50) range) is 123 to 192 µM; in the test with HEK 293T (setting [1]) it was 123 ± 6 µM; with HMC-3 (Homo sapiens, HMC3), 61 ± 2 µM; in the test on 5637 (Homo sapiens), 18 ± 1 µM; in the test with L929 (Mus musculus), 36 ± 4 µM; in the test with CaCo-2 (Homo sapiens), 389 ± 42 µM. Also, in the test with HaCaT (Homo sapiens), the IC50 amounted to 357 ± 40 µM.

Regarding `CN[C@H](C)C(=O)c1ccc(CC(C)C)cc1` [R-IBMCat], the IC50 was 185 ± 5 µM with HEK 293T (72 h incubation, WST-1, four replicates, read-out: IC50 ± SD); 65 ± 2 µM in the test with HMC-3; 20 ± 1 µM with 5637; 39 ± 2 µM in the test with L929; 331 ± 19 µM with CaCo-2; 329 ± 43 µM in the test on HaCaT.

In the case of `CN[C@@H](C)C(=O)c1ccc(CC(C)C)cc1` [S-IBMCat, (S)-4-isobutylmethcathinone hydrochloride], the IC50 with HEK 293T (setting [1]) is 192 ± 2 µM; with HMC-3 (Homo sapiens, HMC3) it was 64 ± 1 µM; with 5637 (Homo sapiens), 21 ± 4 µM; with L929 (Mus musculus) it was 33 ± 5 µM; in the test with CaCo-2 (Homo sapiens), 390 ± 17 µM; in the test with HaCaT (Homo sapiens), 361 ± 22 µM.
